Measurements taken from ChEMBL document CHEMBL1137749, “Antifungal unsaturated cyclic Mannich ketones and amino alcohols: study of mechanism of action” (2009).
≈ marks a conversion by molar mass, not a printed value. Calls of active or inactive are those of the source. No cut-off for these calls is given here.

Tests used:
Candida parapsilosis = assay: Antifungal activity against Candida parapsilosis ATCC 22019 after 48 hrs by macro tube dilution method; assay type: functional; details: Lodderomyces parapsilosis, ATCC 22019, 48 h
Candida albicans [1] = assay: Antifungal activity against Candida albicans ATCC 90028 assessed as changes in fungal protein expression at 2 times MIC after 1 hr by electrophoresis-based microchip technology; assay type: functional, organism-based
Candida albicans [2] = assay: Antifungal activity against Candida albicans ATCC 90028 assessed as changes in fungal protein expression at 0.5 time MIC after 1 hr by electrophoresis-based microchip technology; assay type: functional, organism-based
Pichia kudriavzevii = assay: Antifungal activity against Candida krusei ATCC 30068 after 48 hrs by macro tube dilution method; assay type: functional; details: ATCC 30068, 48 h
Saccharomyces cerevisiae = assay: Antifungal activity against Saccharomyces cerevisiae after 48 hrs by macro tube dilution method; assay type: functional
Aspergillus sp. = assay: Antifungal activity against Aspergillus sp. after 48 hrs by macro tube dilution method; assay type: functional
Candida albicans [3] = assay: Antifungal activity against Candida albicans ATCC 90028 after 48 hrs by macro tube dilution method; assay type: functional; details: ATCC 90028, 48 h
Nakaseomyces glabratus = assay: Antifungal activity against Candida glabrata ATCC 3916 after 48 hrs by macro tube dilution method; assay type: functional; details: ATCC 3916, 48 h
Candida albicans [4] = assay: Inhibition of chitin synthase in Candida albicans ATCC 90028 at 1.5 times MIC by liquid scintillation analyzer relative to nikkomycin
Candida albicans [5] = assay: Antifungal activity against Candida albicans ATCC 90028 assessed as inhibition of fungal ergosterol synthesis at 0.5 times MIC after 16 hrs by UV spectrophotometry; assay type: functional, organism-based
Rattus norvegicus = species: Rattus norvegicus; assay: Inhibition of lactate dehydrogenase in Wistar rat kidney at 1.5 times MIC relative to control

Row | SMILES | MIC (Candida parapsilosis) [µg/mL] | Activity (Candida albicans [1]) | Activity (Candida albicans [2]) | MIC (Pichia kudriavzevii) [µg/mL] | MIC (Saccharomyces cerevisiae) [µg/mL] | MIC (Aspergillus sp.) [µg/mL] | MIC (Candida albicans [3]) [µg/mL] | MIC (Nakaseomyces glabratus) [µg/mL] | inhibition (Candida albicans [4]) | Activity (Candida albicans [5]) | inhibition (Rattus norvegicus) | Activity (Candida albicans [4])
1 | COc1ccccc1/C=C1\CCC(CN2CCCCC2)C1=O (stereo not given) | 12.5 (≈ 41.7 µM) | inactive | inactive | 12.5 (≈ 41.7 µM) | 6.25 (≈ 20.9 µM) | 100 (≈ 334 µM) | 6.25 (≈ 20.9 µM) | 12.5 (≈ 41.7 µM) |  |  |  | 
2 | CC1CCN(C[C@H]2CCC/C(=C\c3ccccc3)[C@@H]2O)CC1 (relative stereo) | > 200 |  |  | > 200 | 100 (≈ 334 µM) | > 200 | > 200 | > 200 |  |  |  | 
3 | O=C1/C(=C/c2ccccc2)CCC1CN1CCNCC1 (stereo not given) | 6.25 (≈ 23.1 µM) | inactive | inactive | 12.5 (≈ 46.2 µM) | 1.56 (≈ 5.77 µM) | 100 (≈ 370 µM) | 6.25 (≈ 23.1 µM) | 12.5 (≈ 46.2 µM) | inactive |  |  | 
4 | O=C1/C(=C/c2ccc3c(c2)OCO3)CCC1CN1CCOCC1 (stereo not given) | 6.25 (≈ 19.8 µM) |  |  | 6.25 (≈ 19.8 µM) | 3.12 (≈ 9.91 µM) | > 200 | 1.56 (≈ 4.95 µM) | 3.12 (≈ 9.91 µM) |  | inactive |  | 
5 | COc1ccc(/C=C2\CCCC(CN3CCOCC3)C2=O)cc1OC (stereo not given) | 50 (≈ 145 µM) |  |  | 50 (≈ 145 µM) | 25 (≈ 72.4 µM) | > 200 | 25 (≈ 72.4 µM) | 100 (≈ 289 µM) |  |  |  | 
6 | O[C@H]1/C(=C/c2ccccc2)CCCC[C@H]1CN1CCCCC1 (relative stereo) | > 200 |  |  | 200 (≈ 668 µM) | 50 (≈ 167 µM) | 200 (≈ 668 µM) | > 200 | 200 (≈ 668 µM) |  |  |  | 
7 | O=C1/C(=C/c2ccccc2)CCCCC1CN1CCOCC1 (stereo not given) | 100 (≈ 334 µM) |  |  | 100 (≈ 334 µM) | 50 (≈ 167 µM) | 200 (≈ 668 µM) | 25 (≈ 83.5 µM) | > 200 | 24% | inactive | inactive | 
8 | O[C@H]1/C(=C/c2ccccc2)CCC[C@H]1CN1CCOCC1 (relative stereo) | > 200 |  |  | > 200 | > 200 | > 200 | > 200 | > 200 |  |  |  | 
9 | O[C@H]1/C(=C/c2ccccc2)CCCCC[C@H]1CN1CCOCC1 (relative stereo) | 200 (≈ 634 µM) |  |  | 200 (≈ 634 µM) | 100 (≈ 317 µM) | > 200 | 200 (≈ 634 µM) | 200 (≈ 634 µM) |  |  |  | Active
10 | O=C1/C(=C/c2ccccc2)CCCC1CN1CCOCC1 (stereo not given) | 12.5 (≈ 43.8 µM) |  |  | 25 (≈ 87.6 µM) | 3.12 (≈ 11 µM) | > 200 | 25 (≈ 87.6 µM) | > 200 |  |  |  | 
11 | O=C1/C(=C/c2ccccc2)CCC1CN1CCCC1 (stereo not given) | 6.25 (≈ 24.5 µM) | inactive | inactive | 6.25 (≈ 24.5 µM) | 3.12 (≈ 12.2 µM) | 50 (≈ 196 µM) | 6.25 (≈ 24.5 µM) | 12.5 (≈ 49 µM) |  |  |  | 
12 | COc1cccc(/C=C2\CCC(CN3CCCCC3)C2=O)c1 (stereo not given) | 6.25 (≈ 20.9 µM) |  |  | 12.5 (≈ 41.7 µM) | 6.25 (≈ 20.9 µM) | 100 (≈ 334 µM) | 12.5 (≈ 41.7 µM) | 12.5 (≈ 41.7 µM) |  |  |  | 
13 | O[C@H]1/C(=C/c2ccccc2)CCCCC[C@H]1CN1CCCCC1 (relative stereo) | 50 (≈ 159 µM) |  |  | 6.25 (≈ 19.9 µM) | 6.25 (≈ 19.9 µM) | 50 (≈ 159 µM) | 100 (≈ 319 µM) | 50 (≈ 159 µM) |  |  |  | inactive
14 | O[C@@H]1/C(=C/c2ccccc2)CC[C@H]1CN1CCCCC1 (relative stereo) | > 200 |  |  | 50 (≈ 184 µM) | 50 (≈ 184 µM) | > 200 | 100 (≈ 368 µM) | > 200 |  |  |  | 
15 | O=C1/C(=C/c2ccccc2)CCCCCC1CN1CCOCC1 (stereo not given) | > 200 |  |  | > 200 | 200 (≈ 638 µM) | > 200 | > 200 | > 200 | Active |  |  | 
16 | O=C1/C(=C/c2ccccc2)CCC1CN1CCOCC1 (stereo not given) | 3.12 (≈ 11.5 µM) |  |  | 3.12 (≈ 11.5 µM) | 0.8 (≈ 2.95 µM) | 50 (≈ 184 µM) | 3.12 (≈ 11.5 µM) | 6.25 (≈ 23 µM) |  |  |  | 
17 | O[C@H]1/C(=C/c2ccccc2)CCCC[C@H]1CN1CCOCC1 (relative stereo) | > 200 |  |  | > 200 | > 200 | > 200 | > 200 | > 200 |  |  |  | 
18 | O=C1/C(=C/c2ccccc2)CCCC1CN1CCCC1 (stereo not given) | 12.5 (≈ 46.4 µM) |  |  | 25 (≈ 92.8 µM) | 12.5 (≈ 46.4 µM) | 100 (≈ 371 µM) | 25 (≈ 92.8 µM) | 25 (≈ 92.8 µM) |  |  |  | 
19 | Cc1ccc(/C=C2\CCCC(CN3CCOCC3)C2=O)cc1 (stereo not given) | 25 (≈ 83.5 µM) |  |  | 200 (≈ 668 µM) | 3.12 (≈ 10.4 µM) | > 200 | 100 (≈ 334 µM) | > 200 |  |  |  | 
20 | O[C@H]1/C(=C/c2ccccc2)CCCC[C@@H]1CN1CCCCC1 (relative stereo) | 100 (≈ 334 µM) |  |  | 100 (≈ 334 µM) | 25 (≈ 83.5 µM) | > 200 | 50 (≈ 167 µM) | 100 (≈ 334 µM) |  |  |  | 
21 | O=C1/C(=C/c2ccccc2)CCCCCC1CN1CCCCC1 (stereo not given) | 200 (≈ 642 µM) |  |  | 200 (≈ 642 µM) | 100 (≈ 321 µM) | 100 (≈ 321 µM) | 100 (≈ 321 µM) | > 200 | 50% |  | 30% | 
22 | COc1ccc(/C=C2\CCC(CN3CCOCC3)C2=O)cc1 (stereo not given) | 6.25 (≈ 20.7 µM) | inactive | inactive | 12.5 (≈ 41.5 µM) | 1.56 (≈ 5.18 µM) | 200 (≈ 664 µM) | 3.12 (≈ 10.4 µM) | 6.25 (≈ 20.7 µM) |  |  |  | 
23 | O[C@H]1/C(=C/c2ccccc2)CCC[C@@H]1CN1CCOCC1 (relative stereo) | > 200 |  |  | 200 (≈ 696 µM) | 200 (≈ 696 µM) | > 200 | 200 (≈ 696 µM) | > 200 |  |  |  | 
24 | CC1CCN(CC2CCC/C(=C\c3ccccc3)C2=O)CC1 (stereo not given) | 25 (≈ 84 µM) |  |  | 100 (≈ 336 µM) | 12.5 (≈ 42 µM) | 100 (≈ 336 µM) | 12.5 (≈ 42 µM) | 100 (≈ 336 µM) |  |  |  | 
25 | COc1cc(/C=C2\CCC(CN3CCCCC3)C2=O)cc(OC)c1OC (stereo not given) | 50 (≈ 139 µM) |  |  | 12.5 (≈ 34.8 µM) | 25 (≈ 69.5 µM) | 100 (≈ 278 µM) | 12.5 (≈ 34.8 µM) | 100 (≈ 278 µM) |  |  |  | 
26 | COc1ccc(/C=C2\CCCC(CN3CCOCC3)C2=O)cc1 (stereo not given) | 12.5 (≈ 39.6 µM) |  |  | 25 (≈ 79.3 µM) | 12.5 (≈ 39.6 µM) | > 200 | 25 (≈ 79.3 µM) | > 200 |  |  |  | 
27 | Cc1ccc(/C=C2\CCC(CN3CCOCC3)C2=O)cc1 (stereo not given) | 6.25 (≈ 21.9 µM) |  |  | 12.5 (≈ 43.8 µM) | 1.56 (≈ 5.47 µM) | 25 (≈ 87.6 µM) | 6.25 (≈ 21.9 µM) | 3.12 (≈ 11 µM) |  |  |  | 
